Marks after values point to notes of the source that are not given here.
Tested on: chicken embryos
Experiment: Metabolic profiling of blood plasma (GC-MS, LC-MS, OPLS-DA)
Format: in vivo, Gallus gallus domesticus
Protocol: Controls were injected with 20 μL vehicle only (DMSO).
Plasma was collected and stored at -70°C.
Metabolites in allantoic fluid and blood plasma were analyzed using gas chromatography-mass spectrometry (GC-MS) and liquid chromatography-mass spectrometry (LC-MS) as described in S1 Methods. Prior to GC-MS and LC-MS analysis, allantoic fluid (100 μL) and blood plasma (50 μL) were extracted. To each sample, 900 μL (allantoic fluid) or 450 μL (blood plasma) of extraction buffer (90/10 v/v methanol:water) including all internal standards were added. Standards for GC-MS were proline, succinic acid, glutamic acid, salicylic acid, alpha-ketoglutarate, putrescine, myristic acid, hexadecanoic acid, cholesterol, and sucrose. Standards for LC-MS were Val-Tyr-Val, Leu-enkephalin, sulfadimethoxine and reserpine. Samples were homogenized by shaking in a bead mill at a frequency of 30 Hz for 3 minutes and proteins were precipitated at +4°C on ice. The samples were centrifuged at +4°C, 14000 rpm, for 10 min. Then, 200 μL supernatant was transferred to a GC microvial and 200 μL was transferred to an LC microvial, and solvents were evaporated. Samples from the four replicate experiments were analyzed using in chronological order and within each replicate experiment the run order of the individual samples was randomized.
Multivariate statistical analyses of metabolite profiles were performed using the software package SIMCA-P version 13.0 (Umetrics, Umeå, Sweden). Data was centered and scaled to variance 1 (UV scaling) prior to modelling. To reduce unintended systematic variation caused by sample processing and instrument drift, GC-MS and LC-MS metabolite amounts (expressed as the area under the chromatographic peak) were normalized by Orthogonal Partial Least Squares analysis (O2PLS) prior to multivariate data analysis. O2PLS finds common (predictive) and unique (orthogonal) variation in two data matrices. If applied to find the common variation between the data matrix containing the measured metabolite concentrations and a matrix containing only the internal standards, the only common (predictive) variation expected is due to the unintended systematic variation. By deleting the contribution of the predictive latent variables, that variation can be removed from the data. Models obtained after this normalization contain in general less latent variables, and this simplification helps when deciding on the number of latent variables to be used. Following normalization, GC-MS and LC-MS data were analyzed together. Initially, a global Principal Component Analysis (PCA) was performed to get an overview of groups and trends and to identify outliers. Projections to latent structures by means of Orthogonal Partial Least Squares Discriminant Analysis (OPLS-DA) was used to model the relationship between the X-matrix (metabolite concentrations) and the Y matrix (class, i.e. exposure group or sex), and to find x-variables that were related to class belonging. OPLS-DA is a supervised prediction and regression method that rotates the projection plane to find the maximum covariance between the data and the class assignment. All groups were first analyzed together in a 5-class OPLS-DA and then each exposure group was analyzed against the control group in a 2-class OPLS-DA. Sex differences were analyzed both using the whole data set and in each group separately using 2-class OPLS-DA, with females and males as the two classes. Only variables with 80% or more nonzero values were included in the statistical models. […] The validity of each model was also checked using CV-ANOVA (ANOVA of the cross-validated residuals). A significance level of p < 0.05 was used. For each model, R ^2 X, R ^2 Y and Q ^2 values were calculated, where R ^2 X is a measure of the fraction of x variation modeled in the extracted latent variables, R ^2 Y is a measure of the fraction of y variation modeled and Q ^2 is an estimate of the predictive ability of the model and is calculated by cross-validation. […]

SMILES: CC(C)(Sc1ccc(CCN(CCCCC2CCCCC2)C(=O)NC2CCCCC2)cc1)C(=O)O [GW7647, reference compound]
- Mean concentration relative to control, feature Win006_C03 (GC): 1.3***
- Mean concentration relative to control, feature Win011_C02 (Isoleucine) (GC): 1.2**
- Mean concentration relative to control, feature Win027_C13 (GC): 0.9
- Mean concentration relative to control, feature Win031_C03 (Citric acid) (GC): 0.8**
- Mean concentration relative to control, feature Win034_C08 (Tyrosine) (GC): 1.2***
- Mean concentration relative to control, feature Win034_C09 (Tyrosine) (GC): 1.3***
- Mean concentration relative to control, feature Win039_C07 (GC): 1.8***
- Mean concentration relative to control, feature Win043_C02 (Cystathionine) (GC): 1.6***
- Mean concentration relative to control, feature Win061_C01 (GC): 1.4*
- Mean concentration relative to control, feature Win066_C03 (GC): 1.3**
- Mean concentration relative to control, feature Win088_C02 (GC): 1.2**
- Mean concentration relative to control, feature 118.0284@2.480333 (C4H6O4) (LC): 0.9
- Mean concentration relative to control, feature 122.0486@0.675613 (LC): 0.7**
- Mean concentration relative to control, feature 126.0428@1.2278157 (Thymine) (LC): 1.2***
- Mean concentration relative to control, feature 146.0362@0.7772238 (LC): 1.3**
- Mean concentration relative to control, feature 159.0686@1.1608156 (LC): 1.6**
- Mean concentration relative to control, feature 164.0449@0.7694838 (LC): 1.2**
- Mean concentration relative to control, feature 202.1024@5.0303197 (C8H14N2O4) (LC): 1.4**
- Mean concentration relative to control, feature 203.1162@0.5130696 (LC): 0.8***
- Mean concentration relative to control, feature 213.2458@7.4887733 (LC): 1
- Mean concentration relative to control, feature 215.047@1.6260729 (C5H14NO6P) (LC): 0.8***
- Mean concentration relative to control, feature 226.0721@1.9460537 (LC): 1.1**
- Mean concentration relative to control, feature 231.0174@1.6241412 (LC): 0.7**
- Mean concentration relative to control, feature 233.1265@2.535991 (LC): 1.4**
- Mean concentration relative to control, feature 250.1317@2.1334834 (LC): 1.7**
- Mean concentration relative to control, feature 260.0508@0.69984084 (LC): 0.8
- Mean concentration relative to control, feature 276.0173@1.6283482 (LC): 0.7**
- Mean concentration relative to control, feature 278.0939@1.3354088 (LC): 0.8***
- Mean concentration relative to control, feature 293.0903@1.5739433 (LC): 1.2***
- Mean concentration relative to control, feature 307.2147@7.5065937 (C18H29NO3) (LC): 0.9
- Mean concentration relative to control, feature 310.178@7.5343466 (LC): 1
- Mean concentration relative to control, feature 339.3861@9.528681 (LC): 1.1
- Mean concentration relative to control, feature 342.2883@7.526812 (LC): 1.1
- Mean concentration relative to control, feature 348.0675@1.5761927 (LC): 1.1**
- Mean concentration relative to control, feature 355.9454@0.68034226 (LC): 0.9**
- Mean concentration relative to control, feature 362.1467@0.8461036 (LC): 1.2***
- Mean concentration relative to control, feature 366.1431@1.4228548 (LC): 1.1
- Mean concentration relative to control, feature 373.296@9.044806 (LC): 0.8***
- Mean concentration relative to control, feature 375.3108@8.995564 (LC): 0.8**
- Mean concentration relative to control, feature 389.2686@9.046645 (LC): 0.9**
- Mean concentration relative to control, feature 407.0999@1.585909 (LC): 1
- Mean concentration relative to control, feature 412.135@2.4779084 (C17H24N4O6S) (LC): 0.9
- Mean concentration relative to control, feature 444.3607@10.33052 (LC): 0.9
- Mean concentration relative to control, feature 471.9819@0.685074 (LC): 0.8*
- Mean concentration relative to control, feature 489.1508@8.562614 (LC): 0.7**
- Mean concentration relative to control, feature 509.1184@2.4798179 (LC): 1
- Mean concentration relative to control, feature 525.2855@8.361063 (LC): 1.4**
- Mean concentration relative to control, feature 545.2492@8.463657 (LC): 1.2*
- Mean concentration relative to control, feature 558.4095@9.459733 (LC): 1.3
- Mean concentration relative to control, feature 565.1902@0.7699907 (LC): 1.2***
- Mean concentration relative to control, feature 577.2747@9.25652 (LC): 1.2**
- Mean concentration relative to control, feature 581.1643@0.77029324 (LC): 1.3***
- Mean concentration relative to control, feature 634.2403@1.9467853 (LC): 1.5*
- Mean concentration relative to control, feature 644.1614@0.7647065 (LC): 1.2**
- Mean concentration relative to control, feature 659.5483@11.4915495 (LC): 0.7***
- Mean concentration relative to control, feature 698.2598@1.3599721 (LC): 1.1
- Mean concentration relative to control, feature 700.5514@10.765638 (LC): 1.4*
- Mean concentration relative to control, feature 755.5465@10.73882 (LC): 0.9
- Mean concentration relative to control, feature 827.5078@8.831237 (LC): 1.5*
- Mean concentration relative to control, feature 875.4661@10.5661745 (LC): 1.3***
- Mean concentration relative to control, feature 1262.4865@1.947075 (LC): 1.1**
- Mean concentration relative to control, feature 1316.4163@1.9465046 (LC): 1.1**
- Mean concentration relative to control, feature 1591.051@5.0189176 (LC): 0.8**
- Mean concentration relative to control, feature 1591.388@5.0202384 (LC): 0.8***
- Mean concentration relative to control, feature 1591.7203@5.018071 (LC): 0.8**
